Assay results published in patent US20230116196A1, “METHOD OF TREATING CNS DISORDERS WITH NEU[…] GABAERGIC COMPOUNDS” (priority 2017, published 2023).
Like-named read-outs stand apart in the source and are kept apart here.

Experiments:
[1] = biological target: T1, α1β2γ2 GABAA receptors (Homo sapiens, UniProt P14867+P18507+P47870); test: Whole-cell patch clamp: potentiation of GABA EC20 currents at recombinant α1β2γ2 GABAA receptors; type: cell-based
T1 construct: expressed in transfected cells; host or cells: LTK cells, stably transfected
T1 sequence (P14867 28-456): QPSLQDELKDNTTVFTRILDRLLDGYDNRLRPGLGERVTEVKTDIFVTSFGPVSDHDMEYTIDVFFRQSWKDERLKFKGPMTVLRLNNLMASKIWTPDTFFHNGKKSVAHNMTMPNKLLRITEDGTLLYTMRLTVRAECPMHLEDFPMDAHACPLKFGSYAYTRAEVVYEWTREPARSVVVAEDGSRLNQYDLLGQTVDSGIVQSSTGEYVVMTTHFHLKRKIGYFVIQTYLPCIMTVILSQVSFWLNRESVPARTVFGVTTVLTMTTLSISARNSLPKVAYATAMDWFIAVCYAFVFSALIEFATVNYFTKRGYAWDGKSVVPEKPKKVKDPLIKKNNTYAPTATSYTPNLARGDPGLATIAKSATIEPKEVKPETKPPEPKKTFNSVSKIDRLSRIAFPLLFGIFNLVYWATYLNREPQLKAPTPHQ
T1 sequence (P47870 25-512 limits assumed): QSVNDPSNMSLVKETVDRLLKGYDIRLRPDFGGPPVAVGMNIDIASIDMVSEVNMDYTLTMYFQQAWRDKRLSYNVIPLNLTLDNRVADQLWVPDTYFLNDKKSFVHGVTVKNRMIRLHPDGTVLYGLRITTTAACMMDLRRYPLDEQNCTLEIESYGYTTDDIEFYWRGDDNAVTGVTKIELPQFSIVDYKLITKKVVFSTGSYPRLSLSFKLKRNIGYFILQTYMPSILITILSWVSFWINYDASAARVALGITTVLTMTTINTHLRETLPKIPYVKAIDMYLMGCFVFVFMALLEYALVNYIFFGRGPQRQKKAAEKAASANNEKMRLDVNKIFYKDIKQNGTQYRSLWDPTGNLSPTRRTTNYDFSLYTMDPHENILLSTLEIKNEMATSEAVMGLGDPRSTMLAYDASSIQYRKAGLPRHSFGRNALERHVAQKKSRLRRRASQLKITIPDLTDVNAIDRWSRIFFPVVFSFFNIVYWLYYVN
T1 sequence (P18507 40-475): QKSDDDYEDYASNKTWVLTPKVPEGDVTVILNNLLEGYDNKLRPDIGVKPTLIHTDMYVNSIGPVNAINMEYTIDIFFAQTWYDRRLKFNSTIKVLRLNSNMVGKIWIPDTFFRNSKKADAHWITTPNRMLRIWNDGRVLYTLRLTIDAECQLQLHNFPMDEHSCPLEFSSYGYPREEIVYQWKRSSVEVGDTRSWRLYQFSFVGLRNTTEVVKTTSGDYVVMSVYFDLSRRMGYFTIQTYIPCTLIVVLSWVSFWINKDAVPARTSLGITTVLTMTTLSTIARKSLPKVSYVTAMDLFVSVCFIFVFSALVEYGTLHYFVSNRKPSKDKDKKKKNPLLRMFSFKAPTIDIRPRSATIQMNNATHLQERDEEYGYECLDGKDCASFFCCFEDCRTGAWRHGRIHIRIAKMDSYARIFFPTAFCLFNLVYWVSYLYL
Experimental: Cellular electrophysiology was used to measure the pharmacological properties of ALLO, ganaxolone and SGE-516 in heterologous cell systems. Compounds were tested for their ability to affect GABA mediated currents at a submaximal agonist dose (GABA EC20=2 μM).
LTK cells were stably transfected with the α1β2γ2 subunits of the GABA receptor and CHO cells are transiently transfected with the α4β3γ subunits via the Lipofecatamine method. Cells were passaged at a confluence of about 50-80% and then seeded onto 35 mm sterile culture dishes containing 2 ml culture complete medium without antibiotics or antimycotics. Cells were cultivated at a density that enabled the recording of single cells without visible connections to other cells.
Whole-cell currents were measured with HEKA EPC-10 amplifiers using PatchMaster software. Bath solution for all experiments contained (in mM): NaCl 137, KCl 4, CaCl2 1.8, MgCl2 1, HEPES 10, D-Glucose 10, pH 7.4 with NaOH. Intracellular (pipette) solution contained (in mM): KCl 130, MgCl2 1, Mg-ATP 5, HEPES 10, EGTA 5, pH 7.2 with KOH. During experiments, cells and solutions were maintained at room temperature (19° C.-30° C.). For manual patchclamp recordings, cell culture dishes were placed on the dish holder of the microscope and continuously perfused (1 ml/min) with bath solution. After formation of a Gigaohm seal between the patch electrode and the cell (pipette resistance range: 2.5 MΩ-6.0MΩ; seal resistance range: >1 GΩ) the cell membrane across the pipette tip was ruptured to assure electrical access to the cell interior (whole-cell patch configuration).
Cells were voltage-clamped at a holding potential of −80 mV. GABAA receptors were activated by 2 μM GABA and compounds were sequentially applied at increasing concentrations for 30 s prior to a 2 s application of GABA. GABA and compounds were applied to cells via the Dynaflow perfusion system (Cellectricon, Sweden). Test compounds were dissolved in DMSO to form 10 mM stock solution and serially diluted to 0.01, 0.1, 1, and 10 μM in bath solution. […] All concentrations of test compound were tested on each cell. The relative percentage potentiation was defined as the peak amplitude in response to GABA EC20 in the presence of test compound divided by the peak amplitude in response to GABA EC20 alone, multiplied by 100.
ALLO and ganaxolone are known PAMs of both synaptic and extrasynaptic GABAAR-mediated currents. […] The α1β2γ2 or α4β3δ subunit combinations were chosen as representatives of typical synaptic and extrasynaptic GABAA receptors respectively.

[2] = test system: dentate gyrus granule cells (DGGCs); type: cell-based, mouse; settings: for tonic current after exposure and washout: 30-60 min wash, vehicle control 43.9±5.7 pA; for concentration dependence of tonic current after exposure and washout: maximal effects at 1 μM; for tonic current versus vehicle treated slices with PKC inhibitor GFX: GFX 50 μM 15 min, then co-exposure 15 min, ≥30 min washout
Experimental: Brain slices were prepared from 3- to 5-week-old male C57 mice. Mice were anesthetized with isoflurane, decapitated, and brains were rapidly removed and submerged in ice-cold cutting solution containing (mM): 126 NaCl, 2.5 KCl, 0.5 CaCl2, 2 MgCl2, 26 NaHCO3, 1.25 NaH2PO4, 10 glucose, 1.5 sodium pyruvate, and 3 kynurenic acid. Coronal 310 μm thick slices were cut with the vibratome VT1000S (Leica Microsystems, St Louis, Mo., USA). The slices were then transferred into incubation chamber filled with prewarmed (31-32° C.) oxygenated artificial cerebro-spinal fluid (ACSF) of the following composition (in mM): 126 NaCl, 2.5 KCl, 2 CaCl2, 2 MgCl2, 26 NaHCO3, 1.25 NaH2PO4, 10 glucose, 1.5 sodium pyruvate, 1 glutamine, 3 kynurenic acid and 0.005 GABA bubbled with 95% O2-5% CO2. Slices were allowed to recover at 32° C. for at least 1 hr before recording. Exogenous GABA was added in an attempt to standardize ambient GABA in the slice and provide an agonist source for newly inserted extrasynaptic GABAARs.
After recovery, a single slice was transferred to a submerged, dual perfusion recording chamber (Warner Instruments, Hamden, Conn., USA) on the stage of an upright microscope (Nikon FN-1) with a 40× water immersion objective equipped with DIC/IR optics. Slices were maintained at 32° C. and gravity-superfused with ACSF solution throughout experimentation and perfused at rate of 2 ml/min with oxygenated (O2/CO2 95/5%) ACSF.
Whole-cell currents were recorded from the dentate gyrus granule cells (DGGCs) in 310-μm-thick coronal hippocampal slices. Patch pipettes (5-7MΩ) were pulled from borosilicate glass (World Precision Instruments) and filled with intracellular solution of the composition (in mM) as follows: 140 CsCl, 1 MgCl2, 0.1 EGTA, 10 HEPES, 2 Mg-ATP, 4 NaCl and 0.3 Na-GTP (pH=7.2 with CsOH). A 5 min period for stabilization after obtaining the whole-cell recording conformation (holding potential of −60 mV) was allowed before currents were recorded using an Axopatch 200B amplifier (Molecular Devices), low-pass filtered at 2 kHz, digitized at 20 kHz (Digidata 1440A; Molecular Devices), and stored for offline analysis.
For tonic current measurements, an all-points histogram was plotted for a 10 s period before and during 100 μM picrotoxin application, once the response reached a plateau level. Recordings with unstable baselines were discarded. Fitting the histogram with a Gaussian distribution gave the mean baseline current amplitude and the difference between the amplitudes before and during picrotoxin was considered to be the tonic current. The negative section of the all-points histogram which corresponds to the inward IPSCs was not fitted with a Gaussian distribution (Kretschmannova et al., 2013; Nusser and Mody, 2002). Series resistance and whole-cell capacitance were continually monitored and compensated throughout the course of the experiment. Recordings were eliminated from data analysis if series resistance increased by >20%. Spontaneous inhibitory post-synaptic currents (sIPSCs) were analyzed using the mini-analysis software (version 5.6.4; Synaptosoft, Decatur, Ga.). Minimum threshold detection was set to 3 times the value of baseline noise signal. To assess sIPSC kinetics, the recording trace was visually inspected and only events with a stable baseline, sharp rising phase, and single peak were used to negate artifacts due to event summation. Only recordings with a minimum of 200 events fitting these criteria were analyzed. sIPSCs amplitude, and frequency from each experimental condition was pooled and expressed as mean±SEM. To measure sIPSC decay, 100 consecutive events were averaged and the decay was fitted to a double exponential and the weighted decay constant (tw) was determined. Statistical analysis was performed by using Student t-test (paired and unpaired where appropriate), where p<0.05 is considered significant.

Compound	pEC50 ± S.E.M., α1β2γ2 ([1]; potentiation of current at GABA EC20 (2 μM), n = 3)	tonic current after 100 nM exposure and washout, WT slices [2]	tonic current after exposure and washout ([2]; 1 μM, 15 min incubation) [pA]	concentration dependence of tonic current after exposure and washout ([2]; 15 min incubation, wash)	tonic current versus vehicle treated slices with PKC inhibitor GFX [2]	EC50 [1] [nM]	magnitude of tonic current versus control ([2]; 1 μM, 15 min incubation, wash)	EC50 ([1]; potentiation of current at GABA EC20 (2 μM), n = 3, read-out: EC50, α1β2γ2) [nM]	Emax ([1]; relative percentage potentiation of GABA EC20 current, read-out: Emax ± S.E.M., α1β2γ2) [%]
CC(=O)[C@H]1CC[C@H]2[C@@H]3CC[C@H]4C[C@H](O)CC[C@]4(C)[C@H]3CC[C@]12C [ALLO, Allopregnanolone]	6.9 ± 0.2	significant increase	95.8±10.8	concentration-dependent increase	no significant difference				
CC(=O)[C@H]1CC[C@H]2[C@@H]3CC[C@H]4C[C@](C)(O)CC[C@]4(C)[C@H]3CC[C@]12C [Ganaxolone]			57.4±6.3			251	did not significantly alter		
C[C@@]1(O)CC[C@@]2(C)[C@H](CC[C@@H]3[C@@H]2CC[C@]2(C)[C@@H](C(=O)Cn4nccn4)CC[C@@H]32)C1 [SGE-516]		significant increased	123.0±22.2	concentration-dependent increase	no significant difference			61	219
